The test system of one experiment is HDQ-P1. As to conditions: 72 h. How it is done:
(§1)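 Drug sensitivity and resistance testing (DSRT) of breast cancer cell lines in 384-well plates, 5 concentrations in 10-fold dilutions over a compound-specific 10,000-fold range. After 72 h, cytotoxicity was read by CellTox Green fluorescence and viability by CellTiter-Glo luminescence (multiplexed), normalised to DMSO and benzethonium chloride controls. EC50 is the inflection point of the fitted dose-response curve (bottom asymptote free, so it can be relative for partial curves) and is censored at the highest tested concentration. Rows with DSS 0 (no meaningful response) were excluded.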

Another experiment has as its system Hs578T. As to conditions: 72 h. The method, then: as §1
The test system of experiment [1] is MDA-MB-468. As to conditions: 72 h. The method, then:
as §1

In another experiment the test system is HCC1599. As to conditions: 72 h. In outline: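 For viability and cell death testing, 384-well plates carried compound at 5 concentrations in 10-fold steps over a compound-specific 10,000-fold range, and breast cancer cell lines were seeded in 20 µl suspension. After 72 h incubation, cell death was read by CellTox Green fluorescence (485/520 nm) before viability was read by CellTiter-Glo luminescence. EC50 was fitted from the dose-response curves and censored at the top concentration. Normalisation on each plate was to 0.1 % DMSO and a positive kill control.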

For experiment [2], the system named is CAL-51. As to conditions: 72 h. How it is done: as §1
Another experiment relates to BT-549. The experiment is described as follows: normalised response (% of control), CellTiter-Glo; higher = more viable cells (100 = DMSO, 0 = benzethonium chloride kill control). As to conditions: incubation time: 72 h. In outline: (§2)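 CellTox Green fluorescence (485/520 nm) and, after 10 min at room temperature, CellTiter-Glo luminescence were read from breast cancer cell lines incubated 72 h in 384-well plates. Cells were seeded as 20 µl suspension onto compound at 5 concentrations in 10-fold steps over a 10,000-fold range chosen per compound. Each plate was normalised to 0.1 % DMSO (100) and a positive kill control (0). Values are normalised signals, one per concentration.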
A general note: In ATP-based viability assays light output follows the ATP content of the culture.

For experiment [3], the system named is CAL-148. Described as above. As to conditions: incubation time: 72 h. In outline:
as §2

Experiment [4] concerns CAL-51. Described as above. As to conditions: incubation time: 72 h. In outline: as §2
A further experiment relates to MCF-10A. The description is as above. As to conditions: incubation time: 72 h. Summed up: as §2
The next experiment concerns MDA-MB-436. Described as above. As to conditions: incubation time: 72 h. Summed up:
as §2

Experiment [5] concerns MDA-MB-468. Described as above. As to conditions: incubation time: 72 h. Summed up: as §2
Experiment [6] concerns SK-BR-3. The experiment is described as above. As to conditions: incubation time: 72 h. In outline: as §2
The next experiment concerns CAL-85-1. As to conditions: 72 h. How it is done: as §1
The subject of a further experiment is MDA-MB-453. As to conditions: 72 h. Summed up: (§3)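 For viability, cells received 2.5 µl CellTiter-Blue for 2 h at 37 °C and fluorescence was read at 560/590 nm. Before this, breast cancer cell lines in 20 µl suspension had been incubated for 72 h on 384-well plates pre-loaded with compound dissolved in 5 µl medium. EC50 was obtained from a percent-inhibition dose-response fit censored at the highest concentration, after normalisation of each plate to vehicle and a positive kill control; rows with a zero drug sensitivity score were discarded.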

The test system of experiment [7] is SK-BR-3. As to conditions: 72 h. Summed up:
as §3

The subject of the next experiment is MDA-MB-231. As to conditions: 72 h. How it is done:
as §1

Another experiment deals with BT-474. As to conditions: 72 h. How it is done:
as §1

Experiment [8] deals with CAL-148. As to conditions: 72 h. The method, then: as §1
The next experiment concerns MFM-223. As to conditions: 72 h. How it is done:
as §1

In the next experiment the test system is HCC1937. As to conditions: 72 h. In outline: as §3

Data on 18 molecules can be found in the supplement of paper PMC4862054.

As for `Cn1cc(C[C@@H](N)C(=O)O)c2ccccc21` [1-methyl-D-tryptophan], the “EC50, CellTox Green” value in the experiment on HDQ-P1, with Hs578T and with MDA-MB-468 [1] was above 5000 nM each time.

In the case of `CC[C@H](CC#N)OC(=O)N[C@@H](C)c1cccc(NC(=O)Nc2ccc(-c3cnco3)c(OC)c2)c1` [AVN944], the “EC50, CellTiter-Glo” value with HCC1599 was determined as 649 nM. For the same molecule, the “EC50, CellTox Green” value in the experiment with CAL-51 [2] was 176 nM; in the experiment on Hs578T, 191 nM.

Take `Cc1c(N)nc([C@H](CC(N)=O)NC[C@H](N)C(N)=O)nc1C(=O)N[C@H](C(=O)N[C@H](C)[C@@H](O)[C@H](C)C(=O)N[C@H](C(=O)NCCc1nc(-c2nc(C(=O)NCCC[S+](C)C)cs2)cs1)[C@@H](C)O)[C@@H](OC1OC(CO)C(O)C(O)C1OC1OC(CO)C(O)C(OC(N)=O)C1O)c1cnc[nH]1` (some centres undefined) [Bleomycin] (10000 nM): the normalised response came to 32.6% in the experiment with BT-549; 63.3% in the experiment with CAL-148 [3]; 37.9% with CAL-51 [4]; 53% in the experiment on MCF-10A; 39.1% in the experiment on MDA-MB-436; 48.8% in the experiment on MDA-MB-468 [5]. Besides, the normalised response in the experiment with SK-BR-3 [6] was found to be 67.4%.

On to `Cc1cc2c(F)c(Oc3ncnn4cc(OC[C@@H](C)O)c(C)c34)ccc2[nH]1` [Brivanib], for which the “EC50, CellTox Green” value with CAL-85-1 is above 1000 nM.

Take `Cc1cc2c(F)c(Oc3ncnn4cc(OC[C@@H](C)O)c(C)c34)ccc2[nH]1` [Brivanib] (1000 nM): the normalised response with BT-549 was found to be 98.3%; in the experiment with CAL-148 [3], 112%; with CAL-51 [4], 83%; in the experiment with MCF-10A, 108%; in the experiment on MDA-MB-436, 112%; in the experiment on MDA-MB-468 [5], 107%. In the experiment on SK-BR-3 [6], the normalised response worked out at 113%.

Consider `CCCCCOC(=O)Nc1nc(=O)n([C@@H]2O[C@H](C)[C@@H](O)[C@H]2O)cc1F` [Capecitabine], for which the “EC50, CellTiter-Blue viability” value with MDA-MB-453 amounted to 7520 nM; in the experiment on SK-BR-3 [7], 9200 nM.

Consider `CCCCCOC(=O)Nc1nc(=O)n([C@@H]2O[C@H](C)[C@@H](O)[C@H]2O)cc1F` [Capecitabine] (10000 nM), for which the normalised response in the experiment on BT-549 amounted to 108%; in the experiment on CAL-148 [3] it was 109%; with CAL-51 [4], 107%; in the experiment with MCF-10A, 102%; in the experiment on MDA-MB-436 it was 78.6%; with MDA-MB-468 [5], 104%. Moreover, the normalised response in the experiment on SK-BR-3 [6] was found to be 74.5%.

With `CC(C)C[C@H](NC(=O)[C@H](CCc1ccccc1)NC(=O)CN1CCOCC1)C(=O)N[C@@H](Cc1ccccc1)C(=O)N[C@@H](CC(C)C)C(=O)[C@@]1(C)CO1` [Carfilzomib] (1000 nM), the normalised response with BT-549 is 2.23%; in the experiment on CAL-148 [3], 7.77%; in the experiment on CAL-51 [4], 1.12%; in the experiment with MCF-10A it was 0.46%; in the experiment on MDA-MB-436, 2.1%; in the experiment with MDA-MB-468 [5] it was 1.29%. In the experiment with SK-BR-3 [6], this molecule returned a normalised response of 2.94%.

In the case of `Nc1nc(Cl)nc2c1ncn2[C@@H]1O[C@H](CO)[C@@H](O)[C@@H]1F` [Clofarabine] (10000 nM), the normalised response with BT-549 was 27.4%; in the experiment on CAL-148 [3], 40.5%; with CAL-51 [4] it was 17%; with MCF-10A, 56.9%; in the experiment with MDA-MB-436, 21.4%; in the experiment with MDA-MB-468 [5], 16.4%. The molecule further yielded a normalised response in the experiment on SK-BR-3 [6] of 36.8%.

Take `CCN(CC)CCOc1ccc(C(=C(Cl)c2ccccc2)c2ccccc2)cc1` [Clomifene] (10000 nM): the normalised response in the experiment on BT-549 amounted to 71.3%; in the experiment on CAL-148 [3], 74.4%; in the experiment with CAL-51 [4] it was 98.5%; with MCF-10A, 46.1%; with MDA-MB-436 it was 87.6%; in the experiment on MDA-MB-468 [5] it was 65%. This molecule also gave a normalised response in the experiment on SK-BR-3 [6] of 27.5%.

As to `C[C@@H]1C[C@H]2[C@@H]3CCC4=CC(=O)C=C[C@]4(C)[C@@]3(F)[C@@H](O)C[C@]2(C)[C@@]1(O)C(=O)CO` [Dexamethasone], the “EC50, CellTiter-Blue viability” value in the experiment with MDA-MB-453 was found to be 15.7 nM.

Turning to `C[C@@H]1C[C@H]2[C@@H]3CCC4=CC(=O)C=C[C@]4(C)[C@@]3(F)[C@@H](O)C[C@]2(C)[C@@]1(O)C(=O)CO` [Dexamethasone] (10000 nM), the normalised response amounted to 96.7% in the experiment with BT-549; 98.2% with CAL-148 [3]; 132% in the experiment with CAL-51 [4]; 79.9% in the experiment on MCF-10A; 103% in the experiment on MDA-MB-436; 95.2% in the experiment with MDA-MB-468 [5]. For the same molecule, the normalised response in the experiment with SK-BR-3 [6] was 86.9%.

Consider `Cc1c(C(=O)Nc2ccc(N3C[C@@H](C)O[C@@H](C)C3)nc2)cccc1-c1ccc(OC(F)(F)F)cc1` [Erismodegib], for which the “EC50, CellTox Green” value in the experiment on MDA-MB-231 is above 10000 nM.

As for `CC(C)C(=O)Nc1ccc([N+](=O)[O-])c(C(F)(F)F)c1` [Flutamide] (10000 nM), the normalised response in the experiment with BT-549 was 94.1%; in the experiment with CAL-148 [3] it was 101%; with CAL-51 [4], 89.6%; in the experiment on MCF-10A, 96.7%; in the experiment on MDA-MB-436, 98.4%; with MDA-MB-468 [5], 93.9%. The molecule further returned a normalised response with SK-BR-3 [6] of 105%.

For `COc1cc2c(Oc3ccc(NC(=O)C4(C(=O)Nc5ccc(F)cc5)CC4)cc3F)ccnc2cc1OCCCN1CCOCC1` [Foretinib] (1000 nM), the normalised response in the experiment on BT-549 came to 75.5%; in the experiment on CAL-148 [3], 48.9%; in the experiment with CAL-51 [4], 67.3%; in the experiment on MCF-10A, 60.7%; in the experiment with MDA-MB-436 it was 73.3%; in the experiment on MDA-MB-468 [5], 34.1%. Besides, in the experiment with SK-BR-3 [6], the normalised response turned out to be 98%.

Take `CC(C)NC[C@@H](C(=O)N1CCN(c2ncnc3c2[C@H](C)C[C@H]3O)CC1)c1ccc(Cl)cc1` [GDC-0068]: the “EC50, CellTox Green” value with BT-474 was 5810 nM; with CAL-148 [8], 221 nM; in the experiment on CAL-51 [2], 1150 nM; in the experiment on HDQ-P1, above 10000 nM; in the experiment with MDA-MB-468 [1], 2640 nM; in the experiment with MFM-223, 1330 nM.

Regarding `NC(=O)NO` [Hydroxyurea], the “EC50, CellTiter-Blue viability” value in the experiment on HCC1937 worked out at 13400 nM. Further, the “EC50, CellTox Green” value with CAL-51 [2] amounted to 16300 nM.

Turning to `NC(=O)NO` [Hydroxyurea] (100000 nM), the normalised response in the experiment on BT-549 turned out to be 77.4%; in the experiment on CAL-148 [3], 102%; in the experiment with CAL-51 [4], 29%; in the experiment on MCF-10A, 105%; in the experiment on MDA-MB-436, 103%; in the experiment with MDA-MB-468 [5], 102%. In the experiment with SK-BR-3 [6], this molecule displayed a normalised response of 110%.
